Results: patent publication US6875760B2 (Novo Nordisk A/S, priority 1999, dated 2005)
pIC50: −log10 of the molar value.

target: T1, human glucagon receptor (Homo sapiens, UniProt P47871); assay: Glucagon Binding Assay (III); settings: BHK cell membranes, WGA SPA beads, 125I-glucagon; read-out: Glu Bd Assay (III) IC50
T1 construct: expressed in transfected cells; host or cells: BHK (baby hamster kidney) cells
Summary of the method: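 Membranes from BHK cells transfected with the human receptor, prepared at 4 °C, were used in a WGA-bead scintillation proximity binding format. Plates were shaken for 4 hours, left to settle 8–48 hours and then counted. Non-specific binding was defined with 500 nM glucagon.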

T1 sequence (P47871 26-477): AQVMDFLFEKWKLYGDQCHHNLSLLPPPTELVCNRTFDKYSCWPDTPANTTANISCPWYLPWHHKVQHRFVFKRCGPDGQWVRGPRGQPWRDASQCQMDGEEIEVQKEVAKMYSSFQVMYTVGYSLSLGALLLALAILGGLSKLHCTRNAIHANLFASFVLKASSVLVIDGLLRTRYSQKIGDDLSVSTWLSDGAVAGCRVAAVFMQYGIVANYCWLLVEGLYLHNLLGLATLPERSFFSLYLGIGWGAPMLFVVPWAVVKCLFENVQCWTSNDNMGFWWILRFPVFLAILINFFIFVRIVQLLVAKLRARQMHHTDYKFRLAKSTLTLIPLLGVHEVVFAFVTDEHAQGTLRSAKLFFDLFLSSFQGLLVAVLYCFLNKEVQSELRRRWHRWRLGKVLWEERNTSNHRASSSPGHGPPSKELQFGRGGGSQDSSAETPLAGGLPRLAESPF

Row | Structure (SMILES) | pIC50
1 | CC(C)(C)[C@H]1CC[C@H](N(Cc2ccc(C(=O)Nc3nn[nH]n3)s2)C(=O)Nc2ccc(OC(F)(F)F)cc2)CC1 [Example 578, 5-[1-(trans-4-tert-Butylcyclohexyl)-3-(4-trifluoromethoxyphenyl)ureidomethyl]thiophene-2-carboxylic acid (2H-tetrazol-5-yl)amide] | 6.65
2 | COc1cc(NC(=O)N(Cc2ccc(C(=O)Nc3nn[nH]n3)cc2)C2CCC(C(C)(C)C)CC2)cc(C(F)(F)F)c1 (stereo not shown) [Example 602, 4-[1-(4-tert-Butylcyclohexyl)-3-(3-methoxy-5-trifluoromethylphenyl)ureidomethyl]-N-(2H-tetrazol-5-yl)benzamide] | 7.59
3 | CC(C)(C)[C@H]1CC[C@@H](N(Cc2ccc(C(=O)Nc3nn[nH]n3)cc2)C(=O)Nc2cc(C(F)(F)F)cc(C(F)(F)F)c2)CC1 [Example 603, 4-[3-(3,5-Bis(trifluoromethyl)phenyl)-1-(cis-4-tert-butylcyclohexyl)ureidomethyl]-N-(2H-tetrazol-5-yl)benzamide] | 7.59
4 | O=C(Nc1nn[nH]n1)c1ccc(CN(C(=O)Nc2ccc(OC(F)(F)F)cc2)C2CCC(C3CC3)CC2)cc1 (stereo not shown) [Example 604, 4-[1-(4-Cyclopropylcyclohexyl)-3-(4-trifluoromethoxyphenyl)ureidomethyl]-N-(2H-tetrazol-5-yl)benzamide] | 6.65
5 | O=C(Nc1nn[nH]n1)c1ccc(CN(C(=O)Nc2nc3cc4c(cc3s2)OC(F)(F)C(F)(F)O4)c2ccc(C3CCCCC3)cc2)cc1 [Example 617] | 6.98
6 | O=C(O)CCNC(=O)c1ccc(CN(C(=O)c2cc(F)cc(C(F)(F)F)c2)C2CCC3(CCCCC3)CC2)cc1 [Example 618, 3-(4-{[(3-Fluoro-5-trifluoromethylbenzoyl)spiro[5.5]undec-3-yl-amino]methyl}benzoylamino)propionic acid] | 5.97
7 | CS(=O)(=O)c1cccc(NC(=O)N(Cc2ccc(C(=O)Nc3nn[nH]n3)cc2)C2CCC3(CCCCC3)CC2)c1 [Example 620, 4-[3-(3-Methylsulfonylphenyl)-1-spiro[5.5]undec-3-ylureidomethyl]-N-(2H-tetrazol-5-yl)benzamide] | 6.27
8 | CS(=O)(=O)c1ccc(OC(=O)N(Cc2ccc(C(=O)NCCC(=O)O)cc2)c2ccc(C3CCCCC3)cc2)cc1 [Example 621, 3-(4-{[(4-Cyclohexylphenyl)-(4-(methylsulfonyl)phenoxycarbonyl)amino]methyl}benzoylamino)propionic acid] | 5.34
9 | CS(=O)(=O)c1ccc(OC(=O)N(Cc2ccc(C(=O)Nc3nn[nH]n3)cc2)c2ccc(C3CCCCC3)cc2)cc1 [Example 622] | 5.34
10 | CC(C)(C)C1CCC(N(Cc2ccc(C(=O)Nc3nn[nH]n3)cc2)C(=O)Oc2ccc(S(C)(=O)=O)cc2)CC1 (stereo not shown) [Example 623] | 5.57
11 | CC(C)(C)c1ccc(N(Cc2ccc(C(=O)Nc3nn[nH]n3)cc2)C(=O)Oc2ccc(S(C)(=O)=O)cc2)cc1 [Example 624] | 5.70

The remaining lines, values ahead:

Row | pIC50 | Structure (SMILES)
12 | 7.92 | N#Cc1ccc(NC(=O)N(Cc2ccc(C(=O)Nc3nn[nH]n3)cc2)c2ccc(C3=CCCCC3)cc2)cc1C(F)(F)F [Example 599, 4-[3-(4-Cyano-3-trifluoromethylphenyl)-1-(4-cyclohex-1-enylphenyl)ureidomethyl]-N-(2H-tetrazol-5-yl)benzamide]
13 | 8.05 | O=C(Nc1nn[nH]n1)c1ccc(CN(C(=O)Nc2ccc(F)c(C(F)(F)F)c2)c2ccc(C3CCCCC3)cc2)cc1 [Example 600, 4-[1-(4-Cyclohexylphenyl)-3-(4-fluoro-3-trifluoromethylihenyl)ureidomethyl]-N-(2H-tetrazol-5-yl)benzamide]
14 | 7.77 | O=C(Nc1nn[nH]n1)c1ccc(CN(C(=O)Nc2ccc(Br)c(C(F)(F)F)c2)c2ccc(C3=CCCCC3)cc2)cc1 [Example 601, 4-[3-(4-Bromo-3-trifluoromethylphenyl)-1-(4-cyclohex-1-enylphenyl)ureidomethyl]-N-(2H-tetrazol-5-yl)benzamide]
15 | 6.89 | O=C(O)CCNC(=O)c1ccc(CN(C(=O)Nc2cc(C(F)(F)F)cc(C(F)(F)F)c2)C2CCC3(CCCCC3)CC2)cc1 [Example 614, 3-{4-[3-(3,5-Bis(trifluoromethyl)phenyl)-1-spiro[5.5]undec-3-ylureidomethyl]benzoylamino}propionic acid]
16 | 6.98 | CC(C)(C)c1ccc(N(Cc2ccc(C(=O)Nc3nn[nH]n3)cc2)C(=O)Nc2nc3ccc(OC(F)(F)F)cc3s2)cc1 [Example 615, 4-[1-(4-tert-Butylphenyl)-3-(6-trifluoromethoxy-benzothiazol-2-yl)ureidomethyl]-N-(2H-tetra-5-yl)benzamide]
17 | 6.13 | CS(=O)(=O)c1ccc2nc(NC(=O)N(Cc3ccc(C(=O)Nc4nn[nH]n4)cc3)c3ccc(C4CCCCC4)cc3)sc2c1 [Example 616, 4-[1-(4-Cyclohexylphenyl)-3-(6-methylsulfonylbenzothiazol-2-yl)ureidomethyl]-N-(2H-tetrazol-5-yl)benzamide]
18 | 6.32 | O=C(O)CCNC(=O)c1ccc(CN(C(=O)c2cc3ccccc3s2)C2CCC3(CCCCC3)CC2)cc1 [Example 619, 3-(4-{[(Benzo[b]thiophene-2-carbonyl)spiro[5.5]undec-3-yl-amino]methyl}benzoylamino)propionic acid]
19 | 8.15 | CCCCN1C(=O)c2ccc(NC(=O)N(Cc3ccc(C(=O)Nc4nn[nH]n4)cc3)c3ccc(C4=CCCCC4)cc3)cc2C1=O [Example 625, 4-[3-(N′-Butylphthalimid-4-yl)-1-(4-cyclohex-1-enylphenyl)ureidomethyl]-N-(2H-tetrazol-5-yl)benzamide]
20 | 7.42 | CCCCN1C(=O)c2ccc(NC(=O)N(Cc3ccc(C(=O)NCCC(=O)O)cc3)c3ccc(C(C)(C)C)cc3)cc2C1=O [Example 626, 3-{4-[3-(N′-Butylphthalimid-4-yl)-1-(4-tert-butylphenyl)ureidomethyl]benzoylamino}propionic acid]
21 | 8.10 | CC(C)N1C(=O)c2ccc(NC(=O)N(Cc3ccc(C(=O)Nc4nn[nH]n4)cc3)c3ccc(C4CCCCC4)cc3)cc2C1=O [Example 627, 4-[1-(4-Cyclohexylphenyl)-3-(N-isopropylphthalimid-4-yl)ureidomethyl]-N-(2H-tetrazol-5-yl)benzamide]
22 | 7.46 | CC(C)N1C(=O)c2ccc(NC(=O)N(Cc3ccc(C(=O)Nc4nn[nH]n4)cc3)c3ccc(C(C)(C)C)cc3)cc2C1=O [Example 628, 4-[1-(4-tert-Butyl-phenyl)-3-(N′-isopropylphthalimid-4-yl)ureidomethyl]-N-(2H-tetrazol-5-yl)benzamide]
23 | 7.35 | CC(C)N1C(=O)c2ccc(NC(=O)N(Cc3ccc(C(=O)Nc4nn[nH]n4)cc3)C3CCC(C(C)(C)C)CC3)cc2C1=O (stereo not shown) [Example 629, 4-[1-(4-tert-Butylcyclohexyl)-3-(N′-isopropylphthalimid-5-yl)ureidomethyl]-N-(2H-tetrazol-5-yl)benzamide]
24 | 7.14 | CC(C)N1C(=O)c2ccc(NC(=O)N(Cc3ccc(C(=O)NCCC(=O)O)cc3)c3ccc(C(C)(C)C)cc3)cc2C1=O [Example 630, 3-{4-[1-(4-tert-Butylphenyl)-3-(N′-isopropylphthalimid-4-yl)ureidomethyl]benzoylamino}propionic acid]
25 | 7.64 | CC(C)N1C(=O)c2ccc(NC(=O)N(Cc3ccc(C(=O)NCCC(=O)O)cc3)c3ccc(C4CCCCC4)cc3)cc2C1=O [Example 631, 3-{4-[1-(4-Cyclohexyl-phenyl)-3-(N′-isopropylphthalimid-4-yl)ureidomethyl]benzoylamino}propionic acid]
